Experimental data as given in patent publication EP0449699A2, “Pyrazole derivatives as angiotensin II-receptor antagonists, process for their preparation and pharmaceutical compositions containing them” (LABORATOIRES UPSA, priority 1990, dated 1991).

System: récepteurs surrénaliens de l'angiotensine II
Experiment: Displacement of radioligand [125I]-SIAII specifically bound to adrenal angiotensin II receptors (rat adrenal homogenate)
Format: binding
Settings: 60 min, 25°C
Description: L'affinité des produits des exemples pour les récepteurs de l'angiotensine II est évaluée par technique de déplacement d'un radioligand spécifiquement fixé sur les récepteurs surrénaliens de l'angiotensine Il, chez le rat.
Une aliquote d'un homogénat de surrénales de rat incube en présence d'une concentration unique de [^125I]-SIAII (Sar^1, Tyr^4, Ile^8 - angiotensine II), antagoniste des récepteurs de l'angiotensine II, et de deux concentrations d'agents compétiteurs (10^-5 M, 10-^7 M) durant 60 min à 25°C.
La réaction est achevée par ajout de tampon, puis rapide filtration à travers des filtres de papier de verre. La liaison non spécifique est déterminée en présence d'angiotensine Il.
Les résultats sont exprimés, pour les concentrations testées, en pourcentage de déplacement du radioligand spécifiquement fixé sur les récepteurs surrénaliens de l'angiotensine Il.

Row | Compound | % de déplacement du ligand marqué (competitor 1E-5 M, 10 µM) | % de déplacement du ligand marqué (competitor 1E-7 M, 0.1 µM)
1 | CCCc1nn(C)c(OCC(=O)N2CCN(c3ccccc3OC)CC2)c1Cc1ccc(NC(=O)c2ccccc2S(=O)(=O)O)cc1 [Exemple 66, (Méthoxy-2 phényl)-1 [[méthyl-1 n-propyl-3 [(sulfo-2 benzoyl amino)-4 benzyl]-4 pyrazol-yl-5]oxyacétyl]-4 pipérazine] | 92% | 63%
2 | CCCc1nn(C)c(OCC(=O)OCC)c1Cc1ccc(-c2ccccc2-c2nnn[nH]2)cc1 [Exemple 70, [Méthyl-1 n-Propyl-3 [(tétrazolyl-5)-2' biphényl-yl-4]méthyl-4 pyrazol-yl-5] oxy acétate d'éthyle] | 67% | 49%
3 | CCCc1nn(C)c(O)c1Cc1ccc(-c2ccccc2-c2nnn[nH]2)cc1 [Exemple 71, Méthyl-1 n-Propyl-3 hydroxy-5 [(tétrazolyl-5)-2' biphényl-yl-4] méthyl-4 pyrazole] | 58% | 24%
4 | CCCc1nn(CC(F)(F)F)c(O)c1Cc1ccc(-c2ccccc2-c2nnn[nH]2)cc1 [Exemple 74, (Trifluoro-2,2,2 éthyl)-1 n-Propyl-3 hydroxy-5 [(tétrazolyl-5)-2' biphényl-yl-4] méthyl-4 pyrazole] | 66% | 58%
5 | CCCCc1nn(CC(F)(F)F)c(OCC(=O)OCC)c1Cc1ccc(-c2ccccc2-c2nn[nH]n2)cc1 [Exemple 78, [(trifluoro-2,2,2éthyl)-1 n-Butyl-3 [(tétrazolyl-5)-2' biphényl-yl-4]méthyl-4 pyrazol-yl-5] oxy acétate d'éthyle] | 73% | 58%
6 | CCCCc1nn(CC(F)(F)F)c(OC(=O)N(C)C)c1Cc1ccc(-c2ccccc2-c2nn[nH]n2)cc1 [Exemple 80, (Trifluoro-2,2,2 éthyl)-1 n-Butyl-3 [(tétrazolyl-5)-2'biphényl-yl-4] méthyl-4 (N,N-diméthyl carbamoyl) oxy-5 pyrazole] | 69% | 48%
7 | CCCCc1nn(C)c(OC(=O)N(C)C)c1Cc1ccc(-c2ccccc2-c2nn[nH]n2)cc1 [Exemple 82, Méthyl-1 n-Butyl-3 [(tétrazolyl-5)-2' biphényl-yl-4] méthyl-4 (N,N-diméthyl carbamoyl) oxy-5 pyrazole] | 71% | 47%
8 | CCCc1nn(CC(F)(F)F)c(OCC(=O)OCC)c1Cc1ccc(-c2ccccc2-c2nn[nH]n2)cc1 [Exemple 84, ((Trifluoro-2,2,2 éthyl)-1 n-Propyl-3 [(tétrazolyl-5)-2' biphényl-yl-4]méthyl-4 pyrazol-yl-5] oxy acétate d'éthyle] | 65% | 51%
9 | CCCc1nn(C)c(OC(=O)N(C)C)c1Cc1ccc(-c2ccccc2-c2nn[nH]n2)cc1 [Exemple 86, Méthyl-1 n-Propyl-3 [(tétrazolyl-5)-2' biphényl-yl-4] méthyl-4 (N,N-diméthyl carbamoyl) oxy-5 pyrazole] | 58% | 41%
10 | CCCc1nn(C)c(OCCO)c1Cc1ccc(-c2ccccc2-c2nn[nH]n2)cc1 [Exemple 88, [Méthyl-1 n-Propyl-3 [(tétrazolyl-5)-2'biphényl-yl-4]méthyl-4 pyrazol-yl-5]oxy-2 éthanol] | 60% | 38%
11 | CCCCc1nn(C)c(OCC(=O)OCC)c1Cc1ccc(-c2ccccc2-c2nn[nH]n2)cc1 [Exemple 90, [Méthyl-1 n-Butyl-3 [(tétrazolyl-5)-2'blphényl-yl-4]méthyl-4 pyrazol-yl-5] oxy acétate d'éthyle] | 64% | 40%
12 | CCCc1nn(CC(F)(F)F)c(OCCO)c1Cc1ccc(-c2ccccc2-c2nn[nH]n2)cc1 [Exemple 92, [(trifluoro-2,2,2 éthyl)-1 n-Propyl-3 [(tétrazolyl-5)-2'biphényl-yl-4]méthyl-4 pyrazol-yl-5] oxy-2 éthanol] | 75% | 70%
13 | CCCc1nn(C)c(COC)c1Cc1ccc(NC(=O)c2ccccc2S(=O)(=O)O)cc1 [Exemple 107, Acide [(Méthyl-1 n-propyl-3 méthoxy méthyl-5 pyrazol-yl-4)méthylphényl-yl-4] amino carbonyl-2 benzène sulfonlque] | 83% | 62%
14 | CCCc1n[nH]c(COC)c1Cc1ccc(NC(=O)c2ccccc2S(=O)(=O)O)cc1 [Exemple 108, Acide [(n-propyl-3 méthoxy méthyl-5 pyrazol-yl-4)méthylphényl-yl-4] amino carbonyl-2 benzène sulfonique] | 86% | 19%
15 | CCCc1nn(C)c(CO)c1Cc1ccc(NC(=O)c2ccccc2S(=O)(=O)O)cc1 [Exemple 115, Acide [(méthyl-1 n-propyl-3 hydroxy méthyl-5 pyrazol-yl-4)méthylphényl-yl-4] amino carbonyl-2 benzène sulfonique] | 80% | 57%
16 | CCCc1n[nH]c(CO)c1Cc1ccc(NC(=O)c2ccccc2S(=O)(=O)O)cc1 [Exemple 116, Acide ((n-Propyl-3 hydroxy méthyl-5 pyrazol-yl-4)méthylphényl-yl-4] amino carbonyl-2 benzène sulfonique] | 82% | 12%
17 | CCCc1nn(C)c(COC)c1Cc1ccc(-c2ccccc2-c2nnn[nH]2)cc1 [Exemple 117, Méthyl-1 n-propyl-3 [(tétrazolyl-5)-2'biphényl-yl-4] méthyl-4 méthoxy méthyl-5 pyrazole] | 61% | 35%
18 | CCCCc1nn(C)c(COC)c1Cc1ccc(-c2ccccc2-c2nnn[nH]2)cc1 [Exemple 118, Méthyl-1 n-Butyl-3 [(tétrazolyl-5)2' biphényl-yl-4] méthyl-4 méthoxy méthyl-5 pyrazole] | 67% | 35%
19 | CCCCc1nn(CC(F)(F)F)c(COC)c1Cc1ccc(-c2ccccc2-c2nnn[nH]2)cc1 [Exemple 119, (Trifluoro-2,2,2 éthyl)-1 n-butyl-3 [(tétrazolyl-5)-2' biphényl-yl-4] méthyl-4 méthoxy méthyl-5 pyrazole] | 70% | 54%
20 | CCCCc1nn(C)c(OCC(=O)N2CCOCC2)c1Cc1ccc(NC(=O)c2ccccc2NS(=O)(=O)C(F)(F)F)cc1 [Exemple 130, N-[[Méthyl-1 n-Butyl-3 [(trifluoro méthyl sulfonyl amino-2 benzoyl)amino-4 benryl]-4 pyrazol-yl-5]oxyacétyl] morpholine] | 74% | 33%
21 | CCCc1nn(C)c(OCC(=O)OC)c1Cc1ccc(-c2ccccc2NS(=O)(=O)C(F)(F)F)cc1 [Exemple 135, [Méthyl-1 n-Propyl-3 (trifluoro méthyl sulfonyl amlmo-2'blphényl-yl-4)méthyl-4 pyrazol-yl-5] oxy acétatede méthyle] | 65% | 34%
